# Measured values reported in patent US9745318B2, “Fluorescent red emitting functionalizable calcium indicators” (PARIS SCIENCES ET LETTRES—QUARTIER LATIN, priority 2013, dated 2017).
# Where “and” joins values, the source holds several entries; their conditions need not be identical. Equal values may be shown once. Read-outs that look alike come from different tables or passages of the source.
# How the values were obtained:
# [1] = tested on: Purkinje cells; test: High-speed random access two-photon microscopy with climbing fiber stimulation in cerebellar slices; assay type: cell-based, mice; conditions: exponential fit, n=59 spines from 7 cells, 300 μM in pipette
# Method: For high speed imaging experiments, acute 260 μm thick slices were obtained from the cerebellar vermis of P60 mice and superfused with extracellular saline medium.
# Climbing fiber stimulation-evoked transient [Ca^2+] changes in Purkinje cell spines were recorded at high acquisition rate (>2 kHz) by two-photon random-access microscopy, a technique is based on the use of acousto-optic deflectors (AODs), which enable selective scanning of defined points. Purkinje cells were recorded in current-clamp mode, using 2-3MΩ patch pipettes containing 300 μM Ia-1. Recordings were obtained by use of a Multiclamp 700B (Molecular Devices). Following the dialysis of Ia-1, Purkinje cells in slices were imaged under a 25× Leica water immersion objective (HCX IRAPO L 25×/0.95). […] A multifunction card (NI-PCI-MIO 16 E-4) was used to pass all the triggers necessary to synchronize the imaging and the electrophysiology and to control the piezo-electric device that moves the objective in Z. Fluorescence photons were detected by cooled AsGaP photomultipliers (H7421-40, Hamamatsu) discriminated and counted on a fast digital card.
# During stimulation of the climbing fiber, fluorescence traces were acquired from multiple spines (range: 4 to 14) at rates over 1 kHz (range 2.2 to 4.8 kHz) (FIGS. 11e and 11f).
# [2] = Fluorimetric titration against Ca2+ (cuvette calibration, Hill fit); assay type: binding; conditions: for Kd: 100 mM KCl, 30 mM MOPS, pH 7.2, Hill fit
# Method: All the solvents were of analytical grade. Chemicals were purchased from commercial sources. ^1H-NMR and ^13C-NMR were measured on a Bruker avance 111-300 MHz spectrometer with chemical shifts reported in ppm (TMS as internal standard). Mass spectra were measured on a Focus GC/DSQ II spectrometer (ThermoScientific) for IC and an API 3000 spectrometer (Applied Biosystems, PE Sciex) for ES. All pH measurements were made with a Mettler Toledo pH-Meter. Fluorescence spectra were recorded on a JASCO FP-8300 spectrofluorometer. Absorption spectra were determined on a VARIAN CARY 300 Bio UV-Visible spectrophotometer. All measurements were done at a set temperature of 25° C. The purity of the dyes were checked by RP-HPLC C-18, eluant: ACN 0.1% TFA/Water 0.1% TFA, method: 20/80 to 100/0 within 20 min then 100/0 for 10 min. detection at λAbs=254 nm. The apparent dissociation constant for calcium (Kd Ca^2+) was measured with a calcium calibration buffer kit from Invitrogen.
# A fluorimetric titration of Ia-1 (5 μM) against Ca^2+ in a buffer containing (in mM) 100 KCl and 30 MOPS (pH 7.2) was performed.
# A fluorimetric titration of Ia-1-Dextran-6000 conjugate against Ca^2+ in a buffer containing (in mM) 100 KCl and 30 MOPS (pH 7.2) was also conducted.
# A fluorimetric titration of Ic-1 and Ic-2 against Ca^2+ in a buffer containing (in mM) 100 KCl and 30 MOPS (pH 7.2) was also conducted. […] The normalised fluorimetric titrations against Ca^2+ of Ia-1, Ic-1 and Ic-2 are represented in FIG. 13.
# [3] = Determination of fluorescence quantum yield; assay type: physicochemical; conditions: rhodamine 101 as reference standard
# Method: The quantum yields φ of Ia-1 were calculated from the slope of the integrated spectral emission (545 to 700 nm) of Ia-1 in the presence (2 mM) or absence (0 mM, 10 mM EGTA) of Ca^2+ vs. absorbance at 535 nm using rhodamine 101 (φ=1.0 in absolute ethanol) as a reference standard. A solvent correction was applied for the comparison of the fluorescence quantum yields of Ia-1 and rhodamine 101. The quantum yields φ were calculated using the following equation where φ is the quantum yield, s is the value of the observed slope and η is the refractive index of the solvent used.
# [formula] • The calculations gave: φCalcium free=0.0089 • φCa2+=0.4541 II.4. Two-Photon Excitation of Compound Ia-1
# [4] = Two-photon excitation, fluorescence intensity vs. excitation power; assay type: physicochemical
# Method: Experiments of two-photon excitation of Ia-1 were conducted. Results are represented on FIG. 8. The power function fit to the data gives a power of 1.92±0.10—within one SD of 2.0, as expected for two-photon excitation evidencing that the measured fluorescence was indeed two-photon excited.
# [5] = in absolute ethanol; cited from earlier work
# [6] = read-out: apparent dissociation constant for Ca2+
compound,measurement,setting,value
[N-]=[N+]=NCCCCCCOc1cc(OCCOc2ccccc2N(CC(=O)O)CC(=O)O)c(N(CC(=O)O)CC(=O)O)cc1C1=c2cc3c4c(c2Oc2c1cc1c5c2CCCN5CCC1)CCC[N+]=4CCC3 [Ia-1],rise time τ of Ca2+ transients,[1],1.30 ± 0.26 ms
same,Kd,[2]; read-out: apparent dissociation constant (KD) for Ca2+,0.258 µM
same,increase of fluorescence on binding [Ca2+],[2]; cuvette calibration experiments,50 fold
same,"quantum yield φ, calcium free","[3]; 0 mM Ca2+, 10 mM EGTA",0.0089
same,"quantum yield φ, Ca2+ bound (maximum quantum yield)",[3]; 2 mM Ca2+,0.4541 and 0.45
same,power of the power function fit (fluorescence intensity vs. excitation power),[4],1.92±0.10
[N-]=[N+]=NCCCCCCOc1cc(OCCOc2ccc(Cl)cc2N(CC(=O)O)CC(=O)O)c(N(CC(=O)O)CC(=O)O)cc1C1=c2cc3c4c(c2Oc2c1cc1c5c2CCCN5CCC1)CCC[N+]=4CCC3 [Ic-1],Kd,[2]; [6],1.7 µM
[N-]=[N+]=NCCCCCCOc1cc(OCCOc2cc(F)ccc2N(CC(=O)O)CC(=O)O)c(N(CC(=O)O)CC(=O)O)cc1C1=c2cc3c4c(c2Oc2c1cc1c5c2CCCN5CCC1)CCC[N+]=4CCC3 [Ic-2],Kd,[2]; [6],0.32 µM
O=C(O)c1ccccc1C1=c2cc3c4c(c2Oc2c1cc1c5c2CCCN5CCC1)CCC[N+]=4CCC3.[Cl-] [rhodamine 101],quantum yield φ of reference standard,[5],1.0
